Results published in ChEMBL document CHEMBL2046383, “Hyrtioreticulins A-E, indole alkaloids inhibiting the ubiquitin-activating enzyme, from the marine sponge Hyrtios reticulatus” (Bioorg Med Chem, 2012).
Calls of active or inactive are those of the source. No cut-off for these calls is given here.

Columns and labels:
HeLa = experiment: Cytotoxicity against human HeLa cells at 50 ug/mL; type: functional, cell-based
[1] = molecular target: T1, Ubiquitin-like modifier-activating enzyme 1 (Homo sapiens) (UniProt P22314); experiment: Inhibition of FLAG-tagged ubiquitin-activating enzyme E1 assessed as inhibition of GST-ubiquitin/FLAG-E1 intermediate formation at 100 uM by Western blot analysis
T1 sequence (whole entry): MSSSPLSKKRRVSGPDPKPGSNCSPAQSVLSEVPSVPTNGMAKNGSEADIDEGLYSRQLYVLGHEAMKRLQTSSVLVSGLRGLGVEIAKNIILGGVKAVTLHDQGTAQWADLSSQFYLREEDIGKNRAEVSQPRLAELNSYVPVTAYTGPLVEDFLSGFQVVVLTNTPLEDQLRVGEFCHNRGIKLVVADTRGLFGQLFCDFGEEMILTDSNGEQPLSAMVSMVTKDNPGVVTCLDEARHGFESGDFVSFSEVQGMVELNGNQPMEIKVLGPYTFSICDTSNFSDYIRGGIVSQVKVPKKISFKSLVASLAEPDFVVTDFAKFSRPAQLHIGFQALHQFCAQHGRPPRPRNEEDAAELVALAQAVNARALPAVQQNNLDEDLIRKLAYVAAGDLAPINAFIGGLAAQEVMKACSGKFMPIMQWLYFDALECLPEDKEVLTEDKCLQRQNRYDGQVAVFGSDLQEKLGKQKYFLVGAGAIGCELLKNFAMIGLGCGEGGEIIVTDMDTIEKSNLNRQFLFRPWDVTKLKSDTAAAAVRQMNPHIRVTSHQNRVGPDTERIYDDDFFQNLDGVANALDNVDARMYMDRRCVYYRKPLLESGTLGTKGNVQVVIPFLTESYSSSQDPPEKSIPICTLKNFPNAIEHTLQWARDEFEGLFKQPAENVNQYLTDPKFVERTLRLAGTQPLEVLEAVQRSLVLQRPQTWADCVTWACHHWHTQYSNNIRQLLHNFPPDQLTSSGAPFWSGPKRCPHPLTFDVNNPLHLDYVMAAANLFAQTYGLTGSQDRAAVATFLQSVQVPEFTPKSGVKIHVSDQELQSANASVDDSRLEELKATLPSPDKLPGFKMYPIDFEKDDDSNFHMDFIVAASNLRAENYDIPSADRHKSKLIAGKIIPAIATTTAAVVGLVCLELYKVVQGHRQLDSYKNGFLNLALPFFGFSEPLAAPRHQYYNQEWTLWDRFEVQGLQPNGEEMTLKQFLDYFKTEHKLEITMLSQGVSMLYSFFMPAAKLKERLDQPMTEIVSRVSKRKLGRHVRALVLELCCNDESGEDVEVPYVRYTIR

[2] = molecular target: T2, Ubiquitin-like modifier-activating enzyme 1 (Homo sapiens, UniProt P22314); experiment: Inhibition of recombinant fluorescein-tagged E1 assessed as inhibition of ubiquitin-E1 adduct formation incubated for 15 mins prior to ATP addition measured after 5 mins by SDS PAGE analysis
T2 sequence (P22314 whole entry): T1 sequence (whole entry)

[3] = molecular target: T2, Ubiquitin-like modifier-activating enzyme 1; experiment: Inhibition of ubiquitin-activating enzyme E1
[4] = molecular target: T1, Ubiquitin-like modifier-activating enzyme 1 (Homo sapiens); experiment: Inhibition of GST-tagged ubiquitin binding to FLAG-tagged E1 at 50 uM after 20 mins by immunoprecipitation analysis
[5] = molecular target: T1, Ubiquitin-like modifier-activating enzyme 1 (Homo sapiens); experiment: (§1) Inhibition of FLAG-tagged ubiquitin-activating enzyme E1 assessed as inhibition of GST-ubiquitin/FLAG-E1 intermediate formation by Western blot analysis
[6] = molecular target: T2, Ubiquitin-like modifier-activating enzyme 1; experiment: as §1

| Structure (SMILES) | inhibition [4] | Activity (HeLa) | further results |
| --- | --- | --- | --- |
| C[C@H]1N[C@@H](C(=O)O)Cc2c1[nH]c1ccc(O)cc21 | – | inactive | inhibition [1]: Active |
| C[C@H]1N[C@H](C(=O)O)Cc2c[nH]c3ccc(O)c1c23 | – | inactive | – |
| CCCCCCCC(=O)SCC/C=C/[C@@H]1CC(=O)NCc2nc(cs2)C2=N[C@@](C)(CS2)C(=O)N[C@@H](C(C)C)C(=O)O1 [LARGAZOLE] | – | – | IC50 [2]: 29 µM |
| CC(C)(O)/C=C/[C@@]12[C@H]3[C@@H](O)[C@@H]4O[C@@H]4[C@]1(O)OC(C)(C)[C@H]2C=C1C(=O)[C@H]2O[C@H]2[C@H](O)[C@H]13 [PANEPOPHENANTHRINE] | – | – | IC50 [3]: 40 µM |
| O=C(O)[C@@H]1Cc2c([nH]c3ccc(O)cc23)[C@H](Cc2c[nH]cn2)N1 [HYRTIORETICULIN B] | inactive | inactive | inhibition [5]: Dose-dependent effect; IC50 [6]: 35 µM |
| O=C(O)[C@@H]1Cc2c([nH]c3ccc(O)cc23)[C@@H](Cc2c[nH]cn2)N1 | inactive | inactive | inhibition [5]: Dose-dependent effect |
| O=C(O)[C@@H]1Cc2c([nH]c3ccc(O)cc23)[C@@H](Cc2cnc[nH]2)N1 [HYRTIORETICULIN A] | – | – | IC50 [6]: 2.4 µM |
| C[C@@H](CC(=O)NC(=O)c1coc(/C=C/CCCCCCCCC(=O)O)cc1=O)C(=O)O | Active | – | – |
| C[C@H]1N[C@H](C(=O)O)Cc2c1[nH]c1ccc(O)cc21 | – | inactive | – |
| C[C@@H]1N[C@H](C(=O)O)Cc2c[nH]c3ccc(O)c1c23 | – | inactive | – |
